Results as given in US20250228901A1, “COMPOSITION FOR PREVENTING, ALLEVIATING OR TREATING INFLAMMATORY SKIN DISEASES, COMPRISING CUTIBACTERIUM SP. STRAIN” (CJ Bioscience, Inc., priority 2021, published 2025).

Tests used:
[1] = tested on: mice in which rosacea is induced; assay: Rosacea animal model induced by LL37 peptide; format: in vivo, BALB/c mice; conditions: for Dermal inflammation (histopathological evaluation score) / Epithelial hyperplasia (histopathological evaluation score): H&E staining of LL37-administered skin, culture products 150 μl i.p. x3, doxycycline 1 mg/kg x3, LL37 = rosacea induction only; for Total (histopathological evaluation score): sum of epithelial hyperplasia and dermal inflammation scores
Experimental: For the present animal effectiveness test, 32 5-week-old female BALB/c mice were purchased from Orient Bio company, and brought into a breeding room with a 12-hour artificial photoperiod, and acclimatized for one week, and then used in the experiment.
To make a rosacea animal model, hair on the mice's back area was removed using a depilator and hair removal cream. In 24 hours after depilation, to induce rosacea lesions, LL37 peptide (Peptron, Co., Ltd) of 320 μM was under intradermal injection using an insulin syringe by 50 μl. […] Doxycycline, which is one of conventional rosacea therapies, was peritoneally administered by 1 mg/kg once a day, for 3 days (total 3 times).
After 24 hours of the last strain culture product administration, the size (area) of erythema was measured using a caliper, and the animals were euthanized using CO2 gas, and then the lesion area was taken as a photograph and the degree of the erythema was observed by naked eyes and the tissue photographs and the area of the inflammation area were shown in FIG. 14a and FIG. 14b as graphs.

[2] = tested on: Raw264.7 macrophages; assay: Inflammation regulation by living cells co-cultured with Raw264.7 macrophages, IL-6 and IL-10 ELISA; format: cell-based; conditions: living cells co-cultured 1:1 with macrophages, 24 hours; compared to the B. fragilis strain
Experimental: The secured living cells and immunocytes (Raw264.7 macrophages) were co-cultured at the same ratio (1:1) of 5×10^4/well, respectively, in a 96 well plate for 24 hours, and then the inflammation regulation efficacy of the strains was confirmed. As a control group, a B. fragilis strain known as an inflammation alleviating strain was used. The secreted amounts of the inflammatory cytokine (IL-6) and anti-inflammatory cytokine (IL-10) secreted from the macrophages were measured by ELISA, and then values thereof were calculated at a ratio of IL-10/IL-6 and they were shown in FIG. 11.

Row | Compound | Dermal inflammation (histopathological evaluation score) [1] | Epithelial hyperplasia (histopathological evaluation score) [1] | Total (histopathological evaluation score) [1] | secreted amount of the anti-inflammatory cytokine (IL-10) [2] | secreted amount of the inflammatory cytokine (IL-6) [2]
1 | C[C@H]1c2cccc(O)c2C(=O)C2=C(O)[C@]3(O)C(=O)C(C(N)=O)=C(O)[C@@H](N(C)C)[C@@H]3[C@@H](O)[C@@H]21 [doxycycline] | 2.4 | 1.2 | 3.6 | – | –
2 | Cutibacterium acnes CJRS-10656 | – | – | – | promoted | reduced
3 | Cutibacterium acnes CJRS-10655 | – | – | – | promoted | reduced
4 | Cutibacterium acnes CJRS-10652 | – | – | – | promoted | reduced
5 | Cutibacterium acnes CJRS-10653 | – | – | – | promoted | reduced
6 | LL37 | 2.5 | 2.75 | 5.25 | – | –
7 | Cutibacterium acnes CJRS-10654 | – | – | – | promoted | reduced
8 | Cutibacterium acnes CJRS-10651 | – | – | – | promoted | reduced
